For 16 molecules, GI50 and TGI results are on record in PubChem BioAssay (NCI).

Structures are written as SMILES.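 1) Cells in 96-well plates. 2) Compound, 48 h, 5 concentrations. 3) Linear interpolation between surrounding doses. 4) Unreached endpoint = highest concentration. Abbreviation: GI50, concentration required for 50% inhibition of growth. TGI: total growth inhibition.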 Some results are limits rather than exact numbers.

The first experiment concerns NCI-H23 lung. Nature of the experiment: inhibition of tumour cell growth, NCI panel, 48 h.
As for `CN(C)c1ccc(/C=C\C2=[N+](C)c3ccccc3C2(C)C)cc1`, the GI50 is 0.299 µM and the TGI came to 23.7 µM.

Turning to `Cn1cc(C2=C(c3c4n(c5ccccc35)CCCCC4)C(=O)NC2=O)c2ccccc21`, the GI50 was 10.6 µM and the TGI was more than 25 µM.

Turning to `Cc1ccnc2c1ccc1c(C)ccnc12`, the GI50 was 0.741 µM and the TGI was 20.2 µM.

`NS(=O)(=O)OC[C@@H]1C[C@@H](n2ccc3c(NC4CCc5ccccc54)ncnc32)C[C@@H]1O` (stereo partly specified): the GI50 is 1.34 µM and the TGI is 46.1 µM.

With `O=C1/C(=C/c2ccc(O)c(O)c2)CCC/C1=C\c1ccc(O)c(O)c1`, the TGI came out at 11.3 µM.

Take `Nc1ccccc1C#C/C=C\C#Cc1ccccc1OC(F)(F)F`: the GI50 is 6.44 µM and the TGI is 80.2 µM.

Turning to `CN1CCCCC1CCN1c2ccccc2Sc2ccc(Cl)cc21` (stereo unspecified), the GI50 is 10.7 µM and the TGI worked out at 26.8 µM.

In the case of `FC(F)(F)c1cccc(Nc2nc(-c3ccccc3)nc3ncccc23)c1`, the GI50 was 5.03 µM and the TGI came out at 28.4 µM.

`CC(=O)OC1OC([C@@H]2c3cccc(O)c3C(=O)c3c(O)cc(C)cc32)C(O)C(O)C1O` (stereo partly specified): the GI50 is less than 0.0199 µM and the TGI was found to be 0.216 µM.

Consider `Cc1ccc(CN2CCC(C(=O)Nc3ccc(-c4cc5ccccc5[nH]4)cc3)CC2)o1`, for which the GI50 is more than 100 µM and the TGI was more than 100 µM.

In the case of `C=CCOc1ccc2c(C)cc(=O)oc2c1C`, the TGI was more than 100 µM.

`Nc1c(C(=O)c2cccc(CCS(N)(=O)=O)c2)cnn1-c1ccc(F)cc1`: the GI50 was more than 25 µM and the TGI is more than 25 µM.

Regarding `Cc1ccc2c(C)c3c(ccc4ccccc43)c[n+]2c1`, the GI50 was 3.96 µM and the TGI stood at 38.6 µM.

As to `COC(=O)/C=C1\S/C(=N\NC(=O)c2cc3ccc2/C=C\c2ccc(cc2)/C=C\3)N(c2ccccc2)C1=O`, the GI50 was 1.95 µM and the TGI was 4.15 µM.

Consider `Cc1ccsc1C(=S)Nc1ccc(Cl)c(/C=N/OC(C)(C)C)c1`, for which the TGI is more than 100 µM.

For `COc1cc2c(c(OC)c1OC)-c1ccc(NNC(N)=S)c(=O)cc1[C@@H](NC(C)=O)CC2`, the GI50 is 0.414 µM and the TGI is more than 49.9 µM.

A further experiment relates to MDA-MB-435. Kind of experiment: inhibition of tumour cell growth, NCI panel, 48 h.
Turning to `CN(C)c1ccc(/C=C\C2=[N+](C)c3ccccc3C2(C)C)cc1`, the GI50 was 0.422 µM and the TGI came to 9.35 µM.

`Cn1cc(C2=C(c3c4n(c5ccccc35)CCCCC4)C(=O)NC2=O)c2ccccc21`: the GI50 was 0.7 µM and the TGI came to 3.01 µM.

Consider `Cc1ccnc2c1ccc1c(C)ccnc12`, for which the GI50 is 0.481 µM and the TGI is 13.1 µM.

For `NS(=O)(=O)OC[C@@H]1C[C@@H](n2ccc3c(NC4CCc5ccccc54)ncnc32)C[C@@H]1O` (stereo partly specified), the GI50 was 5.75 µM and the TGI was more than 100 µM.

`O=C1/C(=C/c2ccc(O)c(O)c2)CCC/C1=C\c1ccc(O)c(O)c1` showed a TGI of 16.7 µM.

As for `Nc1ccccc1C#C/C=C\C#Cc1ccccc1OC(F)(F)F`, the GI50 was 1.39 µM and the TGI was determined as 6.04 µM.

For the molecule `CN1CCCCC1CCN1c2ccccc2Sc2ccc(Cl)cc21` (stereo unspecified), the GI50 was 1.86 µM and the TGI is 4.04 µM.

As to `FC(F)(F)c1cccc(Nc2nc(-c3ccccc3)nc3ncccc23)c1`, the GI50 is 3.77 µM and the TGI came to 22.8 µM.

Turning to `CC(=O)OC1OC([C@@H]2c3cccc(O)c3C(=O)c3c(O)cc(C)cc32)C(O)C(O)C1O` (stereo partly specified), the GI50 is less than 0.0185 µM and the TGI is 0.691 µM.

Consider `Cc1ccc(CN2CCC(C(=O)Nc3ccc(-c4cc5ccccc5[nH]4)cc3)CC2)o1`, for which the GI50 is more than 100 µM and the TGI is more than 100 µM.

In turn, `C=CCOc1ccc2c(C)cc(=O)oc2c1C` gave a TGI of more than 100 µM.

For the molecule `Nc1c(C(=O)c2cccc(CCS(N)(=O)=O)c2)cnn1-c1ccc(F)cc1`, the GI50 was more than 25 µM and the TGI is more than 25 µM.

With `Cc1ccc2c(C)c3c(ccc4ccccc43)c[n+]2c1`, the GI50 is 9.55 µM and the TGI was 24.4 µM.

Regarding `COC(=O)/C=C1\S/C(=N\NC(=O)c2cc3ccc2/C=C\c2ccc(cc2)/C=C\3)N(c2ccccc2)C1=O`, the GI50 is 5.44 µM and the TGI was more than 100 µM.

Molecule `Cc1ccsc1C(=S)Nc1ccc(Cl)c(/C=N/OC(C)(C)C)c1` showed a TGI of more than 100 µM.

Take `COc1cc2c(c(OC)c1OC)-c1ccc(NNC(N)=S)c(=O)cc1[C@@H](NC(C)=O)CC2`: the GI50 is 0.255 µM.

A further experiment deals with HL-60(TB) leukemia. Kind of experiment: inhibition of tumour cell growth, NCI panel, 48 h.
Take `CN(C)c1ccc(/C=C\C2=[N+](C)c3ccccc3C2(C)C)cc1`: the GI50 is 0.295 µM and the TGI was more than 100 µM.

Take `Cn1cc(C2=C(c3c4n(c5ccccc35)CCCCC4)C(=O)NC2=O)c2ccccc21`: the GI50 is 1.39 µM and the TGI is 16.2 µM.

`Cc1ccnc2c1ccc1c(C)ccnc12`: the GI50 is 0.328 µM and the TGI was 2.39 µM.

`NS(=O)(=O)OC[C@@H]1C[C@@H](n2ccc3c(NC4CCc5ccccc54)ncnc32)C[C@@H]1O` (stereo partly specified): the GI50 is 0.214 µM and the TGI was 14 µM.

Take `O=C1/C(=C/c2ccc(O)c(O)c2)CCC/C1=C\c1ccc(O)c(O)c1`: the TGI was more than 27.9 µM.

With `Nc1ccccc1C#C/C=C\C#Cc1ccccc1OC(F)(F)F`, the GI50 is 2.08 µM and the TGI turned out to be 11.1 µM.

Consider `CN1CCCCC1CCN1c2ccccc2Sc2ccc(Cl)cc21` (stereo unspecified), for which the GI50 was 2.66 µM and the TGI was found to be 6.05 µM.

With `FC(F)(F)c1cccc(Nc2nc(-c3ccccc3)nc3ncccc23)c1`, the GI50 is 2.51 µM and the TGI was determined as 6.93 µM.

For the molecule `CC(=O)OC1OC([C@@H]2c3cccc(O)c3C(=O)c3c(O)cc(C)cc32)C(O)C(O)C1O` (stereo partly specified), the GI50 is 0.0173 µM and the TGI was found to be 0.0493 µM.

With `Cc1ccc(CN2CCC(C(=O)Nc3ccc(-c4cc5ccccc5[nH]4)cc3)CC2)o1`, the GI50 was more than 100 µM and the TGI is more than 100 µM.

Consider `C=CCOc1ccc2c(C)cc(=O)oc2c1C`, for which the TGI was more than 100 µM.

With `Nc1c(C(=O)c2cccc(CCS(N)(=O)=O)c2)cnn1-c1ccc(F)cc1`, the GI50 was more than 25 µM and the TGI was more than 25 µM.

As for `Cc1ccc2c(C)c3c(ccc4ccccc43)c[n+]2c1`, the GI50 was 21.5 µM and the TGI turned out to be 55.8 µM.

Turning to `COC(=O)/C=C1\S/C(=N\NC(=O)c2cc3ccc2/C=C\c2ccc(cc2)/C=C\3)N(c2ccccc2)C1=O`, the GI50 is 2.7 µM and the TGI is more than 100 µM.

In the case of `Cc1ccsc1C(=S)Nc1ccc(Cl)c(/C=N/OC(C)(C)C)c1`, the TGI was determined as 74.7 µM.

As for `COc1cc2c(c(OC)c1OC)-c1ccc(NNC(N)=S)c(=O)cc1[C@@H](NC(C)=O)CC2`, the GI50 is 0.226 µM.

The next experiment concerns OVCAR-5 ovarian. Kind of experiment: inhibition of tumour cell growth, NCI panel, 48 h.
As for `CN(C)c1ccc(/C=C\C2=[N+](C)c3ccccc3C2(C)C)cc1`, the GI50 is 3.18 µM and the TGI stood at 43.8 µM.

As for `Cn1cc(C2=C(c3c4n(c5ccccc35)CCCCC4)C(=O)NC2=O)c2ccccc21`, the GI50 is more than 19.5 µM and the TGI was more than 25 µM.

Regarding `Cc1ccnc2c1ccc1c(C)ccnc12`, the GI50 is 0.75 µM and the TGI was determined as 19 µM.

Regarding `NS(=O)(=O)OC[C@@H]1C[C@@H](n2ccc3c(NC4CCc5ccccc54)ncnc32)C[C@@H]1O` (stereo partly specified), the GI50 was 16.4 µM and the TGI was determined as 96.9 µM.

The molecule `O=C1/C(=C/c2ccc(O)c(O)c2)CCC/C1=C\c1ccc(O)c(O)c1` yielded a TGI of 31.2 µM.

For the molecule `Nc1ccccc1C#C/C=C\C#Cc1ccccc1OC(F)(F)F`, the GI50 was 13 µM and the TGI amounted to 44.1 µM.

With `CN1CCCCC1CCN1c2ccccc2Sc2ccc(Cl)cc21` (stereo unspecified), the GI50 was 3.65 µM and the TGI turned out to be 14 µM.

In the case of `FC(F)(F)c1cccc(Nc2nc(-c3ccccc3)nc3ncccc23)c1`, the GI50 was 13.2 µM and the TGI worked out at 90.4 µM.

For the molecule `CC(=O)OC1OC([C@@H]2c3cccc(O)c3C(=O)c3c(O)cc(C)cc32)C(O)C(O)C1O` (stereo partly specified), the GI50 was 0.0323 µM and the TGI came to 0.36 µM.

On to `Cc1ccc(CN2CCC(C(=O)Nc3ccc(-c4cc5ccccc5[nH]4)cc3)CC2)o1`, for which the GI50 was more than 100 µM and the TGI was more than 100 µM.

For the molecule `C=CCOc1ccc2c(C)cc(=O)oc2c1C`, the TGI is more than 100 µM.

Consider `Nc1c(C(=O)c2cccc(CCS(N)(=O)=O)c2)cnn1-c1ccc(F)cc1`, for which the GI50 is more than 25 µM and the TGI is more than 25 µM.

Take `Cc1ccc2c(C)c3c(ccc4ccccc43)c[n+]2c1`: the GI50 is 39.5 µM and the TGI is more than 100 µM.

On to `COC(=O)/C=C1\S/C(=N\NC(=O)c2cc3ccc2/C=C\c2ccc(cc2)/C=C\3)N(c2ccccc2)C1=O`, for which the GI50 was 1.92 µM and the TGI was found to be 3.84 µM.

With `Cc1ccsc1C(=S)Nc1ccc(Cl)c(/C=N/OC(C)(C)C)c1`, the TGI was more than 100 µM.

With `COc1cc2c(c(OC)c1OC)-c1ccc(NNC(N)=S)c(=O)cc1[C@@H](NC(C)=O)CC2`, the GI50 was 7.21 µM and the TGI is more than 100 µM.

The test system of a further experiment is SK-MEL-2 melanoma. Kind of experiment: inhibition of tumour cell growth, NCI panel, 48 h.
With `CN(C)c1ccc(/C=C\C2=[N+](C)c3ccccc3C2(C)C)cc1`, the GI50 was 1.31 µM and the TGI was determined as 43.2 µM.

Regarding `Cn1cc(C2=C(c3c4n(c5ccccc35)CCCCC4)C(=O)NC2=O)c2ccccc21`, the GI50 was 2.12 µM and the TGI was more than 18.8 µM.

For `Cc1ccnc2c1ccc1c(C)ccnc12`, the GI50 was 0.504 µM and the TGI worked out at 18.3 µM.

As for `NS(=O)(=O)OC[C@@H]1C[C@@H](n2ccc3c(NC4CCc5ccccc54)ncnc32)C[C@@H]1O` (stereo partly specified), the GI50 is 0.74 µM and the TGI is 21 µM.

`O=C1/C(=C/c2ccc(O)c(O)c2)CCC/C1=C\c1ccc(O)c(O)c1` displayed a TGI of 13.1 µM.

With `Nc1ccccc1C#C/C=C\C#Cc1ccccc1OC(F)(F)F`, the GI50 is 6.38 µM and the TGI stood at 29 µM.

Consider `CN1CCCCC1CCN1c2ccccc2Sc2ccc(Cl)cc21` (stereo unspecified), for which the GI50 was 3.06 µM and the TGI was found to be 8.97 µM.

As to `FC(F)(F)c1cccc(Nc2nc(-c3ccccc3)nc3ncccc23)c1`, the GI50 was 6.57 µM and the TGI came out at 25.5 µM.

In the case of `CC(=O)OC1OC([C@@H]2c3cccc(O)c3C(=O)c3c(O)cc(C)cc32)C(O)C(O)C1O` (stereo partly specified), the GI50 was 0.162 µM and the TGI is 2.14 µM.

Regarding `Cc1ccc(CN2CCC(C(=O)Nc3ccc(-c4cc5ccccc5[nH]4)cc3)CC2)o1`, the GI50 is more than 100 µM and the TGI was more than 100 µM.

In turn, `C=CCOc1ccc2c(C)cc(=O)oc2c1C` had a TGI of more than 100 µM.

Take `Nc1c(C(=O)c2cccc(CCS(N)(=O)=O)c2)cnn1-c1ccc(F)cc1`: the GI50 is more than 25 µM and the TGI was more than 25 µM.

For `Cc1ccc2c(C)c3c(ccc4ccccc43)c[n+]2c1`, the GI50 is 15.4 µM and the TGI came out at 33.6 µM.

In the case of `COC(=O)/C=C1\S/C(=N\NC(=O)c2cc3ccc2/C=C\c2ccc(cc2)/C=C\3)N(c2ccccc2)C1=O`, the GI50 is 2.65 µM and the TGI worked out at 7.76 µM.

Molecule `Cc1ccsc1C(=S)Nc1ccc(Cl)c(/C=N/OC(C)(C)C)c1` came in with a TGI of more than 100 µM.
